US20080233102A1, “Drug Therapy for Celiac Sprue” (priority 2002, published 2008)
Read-outs that look alike come from different tables or passages of the source.

What was measured:
[1] = molecular target: T1, Tissue transglutaminase (tTG) (Homo sapiens, UniProt P21980); experiment: Inhibition of tTG (residual activity, glutamate dehydrogenase coupled assay); format: biochemical
T1 sequence (P21980 1-687): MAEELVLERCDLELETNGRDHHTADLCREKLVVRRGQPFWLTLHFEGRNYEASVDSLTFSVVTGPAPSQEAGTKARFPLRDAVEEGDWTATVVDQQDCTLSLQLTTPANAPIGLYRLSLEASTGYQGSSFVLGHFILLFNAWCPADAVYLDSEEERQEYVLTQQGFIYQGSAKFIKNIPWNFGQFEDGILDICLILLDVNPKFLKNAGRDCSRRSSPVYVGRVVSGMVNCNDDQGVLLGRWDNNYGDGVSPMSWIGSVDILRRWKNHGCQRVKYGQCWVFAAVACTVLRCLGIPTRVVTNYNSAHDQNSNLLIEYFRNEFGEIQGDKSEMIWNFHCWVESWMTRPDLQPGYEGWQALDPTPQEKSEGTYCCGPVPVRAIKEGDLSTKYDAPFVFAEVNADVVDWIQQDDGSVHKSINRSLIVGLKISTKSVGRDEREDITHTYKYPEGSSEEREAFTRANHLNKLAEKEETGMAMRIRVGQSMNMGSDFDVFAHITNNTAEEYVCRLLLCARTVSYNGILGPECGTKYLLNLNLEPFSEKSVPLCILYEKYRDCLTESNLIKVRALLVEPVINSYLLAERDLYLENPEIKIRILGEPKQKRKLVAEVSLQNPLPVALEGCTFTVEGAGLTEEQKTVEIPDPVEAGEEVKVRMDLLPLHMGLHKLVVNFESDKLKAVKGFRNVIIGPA
Experimental: Inhibition of tTG. tTG (9 μM) was inactivated in 200 mM MOPS, pH=7.1, 5 mM CaCl2, 1 mM ETDA at 30° C. containing 0-600 μM Pro-Gln-Pro-Aci-Leu-Pro-Tyr. Every 20 minutes a 40 μl aliquot was removed and residual tTG activity was assayed in 0.5 ml reaction containing 200 mM MOPS, pH=7.1, 5 mM CaCl2, 1 mM ETDA, 10 mM α-ketoglutarate, 180 U/ml glutamate dehydrogenase (Biozyme laboratories) at 30° C. for 20 minutes by measuring the decrease of absorption at 340 nm. Residual activity was corrected by the corresponding uninhibited tTG reaction (0 μM inhibitor) and fitted to an exponential decay. Kinetic parameters were obtained by double-reciprocal plotting of the apparent second-order inactivation constant or, for isatin analogs, by fitting the data for reversible inhibitors to a standard Michaelis Menten equation with a competitive inhibition constant.

[2] = molecular target: T2, recombinant human tissue transglutaminase (Homo sapiens, UniProt P21980); experiment: tTGase assay with recombinant human tissue transglutaminase; format: biochemical; conditions: dihydroisoxazole inhibitors of human tTGase; for Inhibition Rate Constants (kinh): irreversible inactivation; for Ki: competitive with Cbz-Gln-Gly substrate, read-out: Dissociation Constants (Kl)
T2 construct: made in house
T2 sequence (P21980 1-687): T1 sequence (P21980 1-687)

[3] = tested on: bovine epidermal transglutaminase; conditions: Castelhano et al., Bioorg. Chem. (1988) 16, 335-340; cited from earlier work
[4] = dihydroisoxazoles, 200 mM MOPS, pH=7.1, 30° C., read-out: KI
[5] = isatin derivatives, reversible, competitive inhibition constant, read-out: Kl

Compound	Inhibition Rate Constants (kinh) [2] [min⁻¹]	kinh/Kl [2] [min^−1M^−1]	Ki [2] [µM]	other results
Cc1ccc(C)c(NC(=O)NCC2CC(Br)=NO2)c1 (stereo not drawn) [1-(3-Bromo-4,5-dihydro-isoxazol-5-ylmethyl)-3-(2,5-dimethyl-phenyl)-urea]				Ki [1, 4]: 960 µM
O=C(NCC1CC(Br)=NO1)Nc1cc(C(F)(F)F)ccc1Cl (stereo not drawn) [1-(3-Bromo-4,5-dihydro-isoxazol-5-ylmethyl)-3-(2-chloro-5-trifluoromethyl-phenyl)-urea]				Ki [1, 4]: 910 µM
O=C(NCC1CC(Br)=NO1)Nc1ccc(Cl)cc1C(F)(F)F (stereo not drawn) [1-(3-Bromo-4,5-dihydro-isoxazol-5-ylmethyl)-3-(4-chloro-2-trifluoromethyl-phenyl)-urea]				Ki [1, 4]: 1300 µM
O=C(NCC1CC(Br)=NO1)Nc1ccc(F)cc1 (stereo not drawn) [1-(3-Bromo-4,5-dihydro-isoxazol-5-ylmethyl)-3-(4-fluoro-phenyl)-urea]				Ki [1, 4]: 1300 µM
O=C(NCC1CC(Br)=NO1)Nc1ccccc1 (stereo not drawn) [1-(3-Bromo-4,5-dihydro-isoxazol-5-ylmethyl)-3-phenyl-urea]				Ki [1, 4]: 1100 µM
O=C(N[C@@H](Cc1ccccc1)C(=O)NCC1CC(Br)=NO1)OCc1ccccc1 (stereo partly drawn) [1a, {(S)-1-[(3-Bromo-4,5-dihydro-isoxazol-5-ylmethyl)-carbamoyl]-2-phenyl-ethyl}-carbamic acid benzyl ester]	1.3			Inhibition of bovine epidermal transglutaminase [3]: inhibitor
O=C(N[C@@H](Cc1ccc(O)cc1)C(=O)NCC1CC(Br)=NO1)OCc1ccccc1 (stereo partly drawn) [1b]	0.86	2000	420	
O=C(N[C@@H](Cc1ccc(F)cc1)C(=O)NCC1CC(Br)=NO1)OCc1ccccc1 (stereo partly drawn) [1c, {(S)-1-[(3-Bromo-4,5-dihydro-isoxazol-5-ylmethyl)-carbamoyl]-2-(4-fluoro-phenyl)-ethyl}-carbamic acid benzyl ester]	0.42	980	430	
O=C(N[C@@H](Cc1cccc(F)c1)C(=O)NCC1CC(Br)=NO1)OCc1ccccc1 (stereo partly drawn) [1d, {(S)-1-[(3-Bromo-4,5-dihydro-isoxazol-5-ylmethyl)-carbamoyl]-2-(3-fluoro-phenyl)-ethyl}-carbamic acid benzyl ester]	0.84	2200	390	
O=C(N[C@@H](Cc1c[nH]c2ccccc12)C(=O)NCC1CC(Br)=NO1)OCc1ccccc1 (stereo partly drawn) [1e, {(S)-1-[(3-Bromo-4,5-dihydro-isoxazol-5-ylmethyl)-carbamoyl]-2-(1H-indol-3-yl)-ethyl}carbamic acid benzyl ester]	0.78	2500	310	
O=C(N[C@@H](Cc1c[nH]c2ccc(O)cc12)C(=O)NCC1CC(Br)=NO1)OCc1ccccc1 (stereo partly drawn) [1f, {(S)-1-[(3-Bromo-4,5-dihydro-isoxazol-5-ylmethyl)-carbamoyl]-2-(5-hydroxy-1H-indol-3-yl)-ethyl}-carbamic acid benzyl ester]	0.31	2800	110	
O=C(C[C@H](NC(=O)OCc1ccccc1)C(=O)NCC1CC(Br)=NO1)NCc1ccccc1 (stereo partly drawn) [1g, {(S)-2-Benzylcarbamoyl-1-[(3-bromo-4,5-dihydro-isoxazol-5-ylmethyl)-carbamoyl]-ethyl}-carbamic acid benzyl ester]	0.54	2300		
O=C(N[C@H](Cc1ccccc1)C(=O)NCC1CC(Br)=NO1)OCc1ccccc1 (stereo partly drawn) [1h, {(R)-1-[(3-Bromo-4,5-dihydro-isoxazol-5-ylmethyl)-carbamoyl]-2-phenyl-ethyl}-carbamic acid benzyl ester]	0.29			
C[C@H](NC(=O)OCc1ccccc1)C(=O)NCC1CC(Br)=NO1 (stereo partly drawn) [1i, {(S)-1-[(3-Bromo-4,5-dihydro-isoxazol-5-ylmethyl)-carbamoyl]-ethyl}-carbamic acid benzyl ester]	0.41	450		
O=C(N[C@@H](Cc1ccccc1)C(=O)OCC1CC(Br)=NO1)OCc1ccccc1 (stereo partly drawn) [2a, (S)-2-Benzyloxycarbonylamino-3-phenyl-propionic acid 3-bromo-4,5-dihydro-isoxazol-5-ylmethyl ester]	0.32	230		
CN(CC1CC(Br)=NO1)C(=O)[C@H](Cc1ccccc1)NC(=O)OCc1ccccc1 (stereo partly drawn) [2b, {(S)-1-[(3-Bromo-4,5-dihydro-isoxazol-5-ylmethyl)-methyl-carbamoyl]-2-phenyl-ethyl}-carbamic acid benzyl ester]	0.19	730		
CC(=O)N[C@@H](Cc1ccccc1)C(=O)NCC1CC(Br)=NO1 (stereo partly drawn) [3a, (S)-2-Acetylamino-N-(3-bromo-4,5-dihydro-isoxazol-5-ylmethyl)-3-phenyl-propionamide]	0.60	220		
O=C(N[C@@H](Cc1ccc(O)cc1)C(=O)NCC1CC(Br)=NO1)OCc1ccncc1 (stereo partly drawn) [3b, {(S)-1-[(3-Bromo-4,5-dihydro-isoxazol-5-ylmethyl)-carbamoyl]-2-(4-hydroxy-phenyl)-ethyl}-carbamic acid pyridin-4-ylmethyl ester]	0.12	1500	81	
O=C(N[C@@H](Cc1ccc(O)cc1)C(=O)NCC1CC(Br)=NO1)OCc1cccnc1 (stereo partly drawn) [3c, {(S)-1-[(3-Bromo-4,5-dihydro-isoxazol-5-ylmethyl)-carbamoyl]-2-(4-hydroxy-phenyl)-ethyl}-carbamic acid pyridin-3-ylmethyl ester]	0.21	2700	78	
O=C(N[C@@H](Cc1ccc(O)cc1)C(=O)NCC1CC(Br)=NO1)OCCc1ccccc1 (stereo partly drawn) [3d, {(S)-1-[(3-Bromo-4,5-dihydro-isoxazol-5-ylmethyl)-carbamoyl]-2-(4-hydroxy-phenyl)-ethyl}-carbamic acid phenethyl ester]	0.093	1500	61	
O=C(N[C@@H](Cc1ccc(O)cc1)C(=O)NCC1CC(Br)=NO1)OCc1ccc2ccccc2c1 (stereo partly drawn) [3e, {(S)-1-[(3-Bromo-4,5-dihydro-isoxazol-5-ylmethyl)-carbamoyl]-2-(4-hydroxy-phenyl)-ethyl}-carbamic acid naphthalen-2-ylmethyl ester]	0.070	1600	43	
O=C(N[C@@H](Cc1ccc(O)cc1)C(=O)NCC1CC(Br)=NO1)OCC1=Cc2ccccc2S1(=O)=O (stereo partly drawn) [3f, {(S)-1-[(3-Bromo-4,5-dihydro-isoxazol-5-ylmethyl)-carbamoyl]-2-(4-hydroxy-phenyl)-ethyl}-carbamic acid 1,1-dioxo-1H-1λ6-benzo[b]thiophen-2-ylmethyl ester]	0.38	4400	87	
O=C1Nc2c(cccc2-c2ccccc2)C1=O [R1 = R2 = H; R3 = Ph]				Ki [1, 5]: 400 µM
O=C1Nc2ccccc2C1=O [R1 = R2 = R3 = H]				Ki [1, 5]: 860 µM
O=C1Nc2cc(-c3ccccc3)ccc2C1=O [R1 = R3 = H; R2 = Ph]				Ki [1, 5]: 350 µM
O=C1Nc2ccc([N+](=O)[O-])cc2C1=O [R2 = R3 = H, R1 = NO2]				Ki [1, 5]: 48 µM
O=C1Nc2ccc(F)cc2C1=O [R2 = R3 = H; R1 = F]				Ki [1, 5]: 18 µM
O=C1Nc2ccc(I)cc2C1=O [R2 = R3 = H; R1 = I]				Ki [1, 5]: 22 µM
O=C(N[C@@H](Cc1c[nH]c2ccc(O)cc12)C(=O)NCC1CC(Br)=NO1)OCC1=Cc2ccccc2S1(=O)=O (stereo partly drawn) [compound 4, {(S)-1-[(3-Bromo-4,5-dihydro-isoxazol-5-ylmethyl)-carbamoyl]-2-(5-hydroxy-1H-indol-3-yl)-ethyl}-carbamic acid 1,1-dioxo-1H-1λ6-benzo[b]thiophen-2-ylmethyl ester]	0.54	6800	79	
